Assay results from patent US20130309380A1, “METHODS FOR PRESERVING FRESH PRODUCE” (NatureSeal, Inc., priority 2003, published 2013).

Columns and labels:
Red Delicious apples [1] = assay: Evaluation of sliced Red Delicious apples preserved with fresh produce preservative (scores); conditions: for Color / Flavor / Moistness / Texture: scale 0-10; for color/appearance score: scale to 10
Protocol: (§1) The texture, flavor, and moistness of the fruit were evaluated by tasting fruit samples. The color and/or appearance was also evaluated by visual inspection. The color, texture, moistness and flavor were then evaluated according to a scale of either 1 to 10, with 10 being the value assigned to a freshly cut piece of comparative fruit or vegetable. A value of less than 7 is not acceptable.
(§2) Whole Red Delicious apples were rinsed with tap water, sanitized with a sodium hypochlorite solution containing 100 ppm chlorine, then cored and sliced. The apple slices were immersed in water for 0.5 to 2 minutes. Then the apple slices were dipped into produce preservative solution containing 4% ascorbic acid and 1.59% K2CO3 having a pH 5.69 for 1 minute. The slices were removed from the solution and drained for 1-2 minutes, sealed in polyethylene bags, and stored at 2-5° C. For controls, sliced apples either not treated or were dipped into either 4% ascorbic acid with 0.66% NaOH to adjust the pH to 4.45. For comparison, sliced apples were dipped into a solution containing 4% ascorbic acid and 1.22% Na2CO3 and having a pH of 5.58.
The apples were evaluated and scored on a scale of 0-10 at time intervals. A score of 10 means that the fruit's color and appearance is as good as fresh cut fruit. A score of 7 is the minimum acceptable appearance. Hardness was measured with QTS25.
Red Delicious apples and Granny Smith apples were preserved with the fresh produce preservative as in Example 1 a, except that the preservative solution contained 4% ascorbic acid and 1% Li2CO3.

Bartlett pears = assay: Evaluation of sliced Bartlett pears preserved with fresh produce preservative (scores); design: key: 1–10 scale, 10 = freshly cut fruit; below 7 not acceptable; conditions: for Color / Flavor / Moistness / Texture: scale to 10; for color/appearance score: scale to 10 (Table 5)
Protocol: as §1, §2
Bartlett pears were preserved with the fresh produce preservative as in Example 1a, with preservative solution that contained 4% ascorbic acid and 1.59% K2-CO3. For comparison, pears were treated with a comparative solution that contained 4% ascorbic acid and 1.22% Na2CO3.
Bartlett pears were preserved with the fresh produce preservative as in Example 1a, except that the preservative solution contained 4% ascorbic acid and 1% Li2CO3.

Bramley apples = assay: Water released by sliced Bramley apples
Protocol: The firmness of the produce in Example 11a were evaluated by bending produce samples. Appearance was evaluated by visual inspection. The moisture was evaluated by measuring the amount of water the produce released.
Whole Bramley apples free from blemishes or bruises, were rinsed with water, sanitized with a sodium hypochlorite solution having 100 parts per million available chlorine, for two minutes, then peeled, cored, and sliced. The sliced apples were dipped into a fresh produce preservative solution that contained 5.12% strontium ascorbate; the fresh produce preservative solution contained 4.12% ascorbic acid and 1.79% […], for about 30 to 60 seconds. The apples were then drained in a colander for one minute. The apple slices and the colander were placed in 500 micron plastic bags from SunSet Packaging, stored at 4° C. and evaluated several times over a 15 day period. Water which collected in the plastic bag was removed and weighed.
For comparison, similarly prepared apple slices were placed in one of several solutions that contained either: 4.3% ascorbic acid and 1.13% hydrated MgCO3, specifically 4MgCO3.Mg(OH)25H2O or a 5.0% w/w aqueous solution of calcium ascorbate dihydrate, having a pH of 7.2; or a 5.3% w/w solution, of 4.12% ascorbic acid and 1.17% calcium carbonate,; or 6% ascorbic acid having a pH of 2.3; or 48 g ascorbic acid, 48 g citric acid, 16 g CaCl2 and 48 g NaCl in 800 g water, with a pH of 1.2; or 6% w/w citric acid and 6% w/w ascorbic acid; or 4.64% sodium ascorbate having 4.13% ascorbic acid and 1.18% NaCo3. […]

Red Delicious apples [2] = assay: Evaluation of sliced Red Delicious apples (Examples 14 and 15, scores)
Protocol: The texture, flavor, and moistness of the fruit were evaluated by tasting fruit samples. The color and/or appearance was also evaluated by visual inspection. […] Then the apple slices were dipped for 1 minute into the following solutions: 3% ascorbic acid and 0.8% NH4Cl. For comparision, untreated slices were used as well as apple slices treated with 3% ascorbic acid or 2% ascorbic acid. The apples were removed, drained for 1-2 minutes, sealed in 2 mil, polyethylene bags, and stored at 2-5° C. Red Delicious apples were preserved with the fresh produce preservative as in Example 14a, except that the preservative solution contained 3.0% ascorbic acid and 0.8% CuSO4.

Question: How did the Color (Red Delicious apples [1]; 0 hour) turn out when `O=C1O[C@H]([C@@H](O)CO)C(O)=C1O` [Ascorbic Acid, ascorbic acid] was run?
Answer: The Color was 10.

Question: What about the Flavor (Red Delicious apples [1]; 0 hour) of the same molecule?
Answer: Its Flavor is 5.

Question: And the Moistness (Red Delicious apples [1]; 0 hour)?
Answer: Its Moistness is 10.

Question: What about the Texture (Red Delicious apples [1]; 0 hour) of the same molecule?
Answer: The Texture was 10.

Question: And the Color (Red Delicious apples [1]; 1 week at 2-5° C.)?
Answer: The Color was 9.6.

Question: What about the Flavor (Red Delicious apples [1]; 1 week at 2-5° C.) of the same molecule?
Answer: The Flavor was 7.

Question: What about the Moistness (Red Delicious apples [1]; 1 week at 2-5° C.) of the same molecule?
Answer: Its Moistness is 10.

Question: What about the Texture (Red Delicious apples [1]; 1 week at 2-5° C.) of the same molecule?
Answer: Its Texture is 7.8.

Question: What about the color/appearance score (Red Delicious apples [1]; 1 week) of the same molecule?
Answer: Its color/appearance score is 6.

Question: What about the Color (Red Delicious apples [1]; 2 week at 2-5° C.) of the same molecule?
Answer: Its Color is 8.4.

Question: And the Flavor (Red Delicious apples [1]; 2 week at 2-5° C.)?
Answer: The Flavor was 7.

Question: And the Moistness (Red Delicious apples [1]; 2 week at 2-5° C.)?
Answer: Its Moistness is 9.

Question: And the Texture (Red Delicious apples [1]; 2 week at 2-5° C.)?
Answer: The Texture was 7.

Question: What about the Color (Red Delicious apples [1]; 1 day at 2-5° C.) of the same molecule?
Answer: Its Color is 10.

Question: And the Flavor (Red Delicious apples [1]; 1 day at 2-5° C.)?
Answer: Its Flavor is 8.

Question: And the Moistness (Red Delicious apples [1]; 1 day at 2-5° C.)?
Answer: Its Moistness is 10.

Question: What about the Texture (Red Delicious apples [1]; 1 day at 2-5° C.) of the same molecule?
Answer: The Texture was 9.8.

Question: What about the color/appearance score (Red Delicious apples [1]; 24 hours (app)) of the same molecule?
Answer: Its color/appearance score is 9.

Question: What about the color/appearance score (Red Delicious apples [1]; 3 days) of the same molecule?
Answer: The color/appearance score was 9.

Question: And the Color (Bartlett pears; 0 hour)?
Answer: The Color was 10.

Question: And the Flavor (Bartlett pears; 0 hour)?
Answer: The Flavor was 5.

Question: What about the Moistness (Bartlett pears; 0 hour) of the same molecule?
Answer: The Moistness was 10.

Question: And the Texture (Bartlett pears; 0 hour)?
Answer: Its Texture is 10.

Question: What about the Color (Bartlett pears; 1 week) of the same molecule?
Answer: The Color was 8.6.

Question: And the Flavor (Bartlett pears; 1 week)?
Answer: The Flavor was 8.8.

Question: And the Moistness (Bartlett pears; 1 week)?
Answer: Its Moistness is 7.

Question: What about the Texture (Bartlett pears; 1 week) of the same molecule?
Answer: Its Texture is 3.

Question: And the Color (Bartlett pears; 2 weeks)?
Answer: The Color was 6.4.

Question: What about the Flavor (Bartlett pears; 2 weeks) of the same molecule?
Answer: Its Flavor is 3.4.

Question: What about the Texture (Bartlett pears; 2 weeks) of the same molecule?
Answer: The Texture was 1.

Question: And the Color (Bartlett pears; 1 day)?
Answer: Its Color is 10.

Question: And the Flavor (Bartlett pears; 1 day)?
Answer: The Flavor was 9.

Question: And the Moistness (Bartlett pears; 1 day)?
Answer: Its Moistness is 10.

Question: What about the Texture (Bartlett pears; 1 day) of the same molecule?
Answer: The Texture was 9.6.

Question: What about the color/appearance score (Bartlett pears; 1 day) of the same molecule?
Answer: The color/appearance score was 10.

Question: And the color/appearance score (Bartlett pears; 2 days)?
Answer: Its color/appearance score is 6.

Question: What about the “Water Released” value (Bramley apples; 4 hr at 4° C.) of the same molecule?
Answer: Its value is 6.78 g.

Question: And the “Water Released” value (Bramley apples; 28 hr at 4° C.)?
Answer: The value was 5.34 g.

Question: What about the “Water Released” value (Bramley apples; 52 hr at 4° C.) of the same molecule?
Answer: The value was 4.19 g.

Question: What about the “Water Released” value (Bramley apples; 94 hr at 4° C.) of the same molecule?
Answer: The value was 2.94 g.

Question: And the “Water Released” value (Bramley apples; 191 hr at 4° C.)?
Answer: The value was 2.63 g.

Question: What about the color/appearance score (Red Delicious apples [2]; 1 hour, scale to 10 (Table 15)) of the same molecule?
Answer: The color/appearance score was 10.

Question: And the color/appearance score (Red Delicious apples [2]; 1 hour, scale to 10 (Table 16))?
Answer: Its color/appearance score is 10.

Question: And the color/appearance score (Red Delicious apples [2]; 24 hours, scale to 10 (Table 15), listed as 2% Ascorbic Acid Control, 2% Ascorbic Acid control dip)?
Answer: Its color/appearance score is 5.33.

Question: What about the color/appearance score (Red Delicious apples [2]; 24 hours, scale to 10 (Table 15), listed as 3% Ascorbic Acid Control, 3% Ascorbic Acid control dip) of the same molecule?
Answer: Its color/appearance score is 6.

Question: And the color/appearance score (Red Delicious apples [2]; 24 hours, scale to 10 (Table 16), listed as 2% Ascorbic Acid Control, 2% Ascorbic Acid control)?
Answer: Its color/appearance score is 5.

Question: What about the color/appearance score (Red Delicious apples [2]; 24 hours, scale to 10 (Table 16), listed as 3% Ascorbic Acid Control, 3% Ascorbic Acid control) of the same molecule?
Answer: Its color/appearance score is 6.

Question: And the color/appearance score (Red Delicious apples [2]; Day 3, scale to 10 (Table 15), listed as 2% Ascorbic Acid Control, 2% Ascorbic Acid control dip)?
Answer: The color/appearance score was 5.

Question: And the color/appearance score (Red Delicious apples [2]; Day 3, scale to 10 (Table 15), listed as 3% Ascorbic Acid Control, 3% Ascorbic Acid control dip)?
Answer: The color/appearance score was 6.

Question: What about the color/appearance score (Red Delicious apples [2]; Day 3, scale to 10 (Table 16), listed as 2% Ascorbic Acid Control, 2% Ascorbic Acid control) of the same molecule?
Answer: The color/appearance score was 5.

Question: And the color/appearance score (Red Delicious apples [2]; Day 3, scale to 10 (Table 16), listed as 3% Ascorbic Acid Control, 3% Ascorbic Acid control)?
Answer: Its color/appearance score is 6.

Question: And the color/appearance score (Red Delicious apples [2]; Day 4, scale to 10 (Table 15), listed as 2% Ascorbic Acid Control, 2% Ascorbic Acid control dip)?
Answer: Its color/appearance score is 6.

Question: And the color/appearance score (Red Delicious apples [2]; Day 4, scale to 10 (Table 15), listed as 3% Ascorbic Acid Control, 3% Ascorbic Acid control dip)?
Answer: Its color/appearance score is 4.

Question: And the color/appearance score (Red Delicious apples [2]; Day 5, scale to 10 (Table 15), listed as 2% Ascorbic Acid Control, 2% Ascorbic Acid control dip)?
Answer: The color/appearance score was 6.

Question: And the color/appearance score (Red Delicious apples [2]; Day 5, scale to 10 (Table 15), listed as 3% Ascorbic Acid Control, 3% Ascorbic Acid control dip)?
Answer: The color/appearance score was 4.

Question: And the color/appearance score (Red Delicious apples [2]; Day 6, scale to 10 (Table 15), listed as 2% Ascorbic Acid Control, 2% Ascorbic Acid control dip)?
Answer: Its color/appearance score is 6.

Question: What about the color/appearance score (Red Delicious apples [2]; Day 6, scale to 10 (Table 15), listed as 3% Ascorbic Acid Control, 3% Ascorbic Acid control dip) of the same molecule?
Answer: Its color/appearance score is 4.
